Data: paper PMC8042910, “Adiponectin-mimetic novel nonapeptide rescues aberrant neuronal metabolic-associated memory deficits in Alzheimer’s disease” (Molecular Neurodegeneration, 2021)
Residues, ends and D or L forms follow the SMILES beside them.

Assays:
[1] = tested on: WT C57BL/6 N mice; assay type: in vivo, mouse; settings: i.p. bolus 10, 20, 30, 40 and 50 mg/kg, observed 1 week, n = 5/group, data not shown
Experimental: To optimize and analyze the toxicity and effective dose of Os-pep, we performed a separate group of studies using wild-type (WT) male C57BL/6 N mice to examine the toxicity of Os-pep in vivo. The WT mice were rearranged into 5 groups (n = 5 mice/group). Os-pep was administered in bolus dosages of 10, 20, 30, 40 and 50 mg/kg in normal saline to the respective groups, and the Veh-injected mice received the same amount of normal saline as WT mice. We checked for signs of systemic toxicity, such as head tilt, tremor, abnormal physical activity and squinting, for 1 week in WT mice that had been treated with i.p. bolus doses of Os-pep (10, 20, 30, 40 and 50 mg/kg).
To optimize and analyze the toxicity and effective dose of Os-pep, we performed a separate group of studies in order to assess signs of systemic toxicity, such as head tilt, tremor, changes in physical activity and squinting, for 1 week in normal WT mice injected i.p. with bolus doses of Os-pep (10, 20, 30, 40 and 50 mg/kg) to investigate the safety profile of bolus doses of Os-pep.

[2] = tested on: learning and memory functions; test: Morris water maze (MWM) test; assay type: in vivo, mouse
Experimental: To evaluate the learning and memory functions of the mice, we performed the Morris water maze (MWM) and Y-maze tests. After completion of the Os-pep dosage regimen, behavioral studies were performed on AβO-injected, AβO-injected and scramble and functional AdipoR1 shRNA-treated, APP/PS1 and Adipo^−/− mice (n = 13/group) using the MWM and Y-maze tests. […] The mice were randomly selected, and the operators were unaware of the genotype and treatment details for the behavioral study. The MWM and Y-maze tests were performed as previously described.

[3] = tested on: p-IRS-1 and p-PI3K/Akt/GSK3β (Ser 9) pathways; test: Insulin resistance and downstream insulin signaling in APPswe/ind-overexpressing SH-SY5Y cells, immunoblot; assay type: cell-based, human; settings: Os-pep 10 μM
Experimental: Human neuroblastoma SH-SY5Y cells were seeded (in 6-well culture plates for immunoblotting and in chamber slides for immunofluorescence) in DMEM (Dulbecco’s modified Eagle medium) containing 10% fetal bovine serum (FBS) and 1% antibiotics (penicillin-streptomycin) and incubated at 37 °C in humidified air containing 5% CO2. Once the cells reached 70–80% confluence, the cells were transfected using the pCAX vector containing the APPswe/ind gene using Lipofectamine 3000 (Life Technologies) according to the provider’s protocols. AdipoR1 siRNA (h) (SC-60123) and AMPK siRNA (h) (SC-45312) (Santa Cruz Biotechnology, Inc.) were used at a concentration of 10 μM per transfection and expressed for 72 h according to the manufacturer’s protocol (Santa Cruz Biotechnology, Inc.). A negative siRNA (Ambion, Thermo Fisher Scientific) was used as a control. Seventy-two hours after the transfections, the cells were exposed to Os-pep (10 μM) for 12 h and then subjected to immunoblotting and immunofluorescence analyses.
Human neuroblastoma SH-SY5Y cells were treated with 1 µM of insulin for 48 h to produce intrinsic insulin-resistant human neuroblastoma (SH-SY5YIR) cells. After 48 h, SH-SY5YIR cells were overexpressed with human APPswe/ind and subjected with AdipoR1 siRNA which further exposed to 10 nM insulin, Os-pep (10 µM) or compound C (10 µM) for 12 h, and then cell lysates were collected and proceeded accordingly for immunoblotting and ELISA.

[4] = tested on: AdipoR1/p-AMPK signaling; test: AdipoR1/p-AMPK signaling in mouse brain (immunoblot); assay type: in vivo; settings: 5 μg/g, i.p., alternating days for 45 days
Experimental: (§1) Os-pep was dissolved in double-deionized distilled water and then prepared in normal saline to obtain the final administered concentration. The AβO, APP/PS1, Adipo^−/− and WT mice were injected i.p. with Os-pep at a dosage of 5 μg/g on alternating days for 45 days. WT, Veh-injected transgenic-APP/PS1 and Adipo^−/− mice were injected with the same volume of double-deionized water and normal saline. The WT control and sham mice as well as the Veh-injected AβO, APP/PS1, Adipo^−/− and HFD mice received the same volume of double-deionized distilled water or normal saline.
(§2) The protein concentrations of the homogenates of mouse brain tissue and cell lysates in vitro were measured using a Bio-Rad protein assay kit (Bio-Rad Laboratories, Hercules, CA), and immunoblotting was performed as we previously described, using primary antibodies (detailed information described in the supplementary Table 1). Western blotting membranes have been cut prior to original western blot images and original western blot images are available at supplementary material.

[5] = tested on: SH-SY5Y cells; test: ApoTox-Glo Triplex assay (viability, cytotoxicity, caspase 3/7), AβO-exposed cells; assay type: cell-based, human; settings: AβO 1 μM, 12 h
Experimental: The ApoTox-Glo^TM Triplex assay (Promega, Madison, WI) was performed to assess the viability, cytotoxicity and caspase^3/7 activation in the human neuroblastoma SH-SY5Y and mouse hippocampal HT22 cells. SH-SY5Y and HT22 cells (2×10^4/ml) were cultured in 96-well plates (Thermo Fisher Scientific) containing DMEM supplemented with 10% FBS and 1% antibiotics and incubated at 37°C in a humidified incubator containing 5% CO2. After reaching 70% confluency, the cells were treated with AβO (1 µM) and different concentrations of Os-pep (0.5, 1, 5 and 10 µM) for 12 h. The control group (cells treated with 0.01% DMSO) was also analyzed. In addition, SH-SY5Y and HT22 cells were transfected with the AdipoR1 siRNA (h) (SC-60123) and AdipoR1 siRNA (m) (SC-60124), respectively, and treated with AβO (1 µM) and Os-pep (10 µM) for 12 h; the control group was transfected with the negative siRNA (Ambion, Thermo Fisher Scientific) and treated with 0.01% DMSO. The assay was performed according to our previously described protocols.

[6] = tested on: activated caspase-3 and cleaved PARP-1; test: Apoptotic and neurodegenerative markers in APP/PS1 mouse brain, immunoblot; assay type: in vivo; settings: APP/PS1 mice, 5 μg/g, i.p., alternating days for 45 days, n = 8/group
Experimental: as §2

[7] = tested on: pre- and postsynaptic protein markers; test: Pre- and postsynaptic protein markers in mouse brain, immunoblot; assay type: in vivo; settings: 5 μg/g, i.p., alternating days for 45 days
Experimental: as §1, §2

[8] = AβO-injected, APP/PS1 and Adipo−/− mice, n = 13/group

## C[C@@H](O)[C@H](NC(=O)[C@@H]1CCCN1C(=O)CNC(=O)[C@H](CS)NC(=O)[C@@H]1CCCN1C(=O)CNC(=O)[C@H](CCC(N)=O)NC(=O)[C@@H](NC(=O)[C@@H](N)CS)[C@@H](C)O)C(=O)O [Os-pep] (H-CTQGPCGPT-OH; N-terminus and C-terminus assumed)
[1]
  signs of systemic toxicity (head tilt, tremor, physical activity, squinting): no toxicity was observed
[2]; AβO-injected mice exposed to shRNA silencing of AdipoR1 gene, vs scramble shRNA
  spatial learning/memory functions with AdipoR1 silencing (MWM and Y-maze): did not improve spatial learning/memory functions
[2]; AβO-injected, APP/PS1 and Adipo−/− mice, 5 μg/g, i.p., alternating days for 45 days, n = 13/group
  latency to reach the submerged platform, training session: decrease in the latency
[2]; [8]
  number of platform crossings, probe test: significantly increased number of platform crossings
  time spent in the target quadrant, probe test: more time was spent in the target quadrant
[3]; APPswe/ind SH-SY5YIR (insulin 1 μM), 12 h
  p-IRS-1 Tyr 632 and p-PI3K/Akt/GSK3β (Ser 9) in insulin-resistant cells: significantly activated
[3]; APPswe/ind-overexpressing SH-SY5Y, AdipoR1 siRNA
  p-IRS-1 Ser636/312 with AdipoR1 knockdown: did not downregulate
[3]; APPswe/ind-transfected SH-SY5Y, AMPK siRNA
  p-IRS-1 Tyr 632 and p-PI3K/Akt/GSK3β (Ser 9) with AMPK knockdown: did not upregulate
[4]; vs AβO-injected mice without Os-pep
  AdipoR1/p-AMPK signaling, AβO-injected mice: significantly increased AdipoR1/p-AMPK signaling
[4]; vs Veh-treated APP/PS1
  AdipoR1/p-AMPK signaling, APP/PS1 mice: remarkably increased AdipoR1/p-AMPK signaling
[4]; vs group without Os-pep
  AdipoR1/AMPK levels, Adipo−/− mice: significantly increased AdipoR1/AMPK levels
[5]; AdipoR1 siRNA-transfected SH-SY5Y, Os-pep 10 μM
  AβO-induced toxicity with AdipoR1 siRNA: did not reduce the AβO-induced toxicity
[5]; SH-SY5Y, Os-pep 10 μM
  AβO neurotoxicity (viability, cytotoxicity, caspase 3/7): significantly reduced AβO (1 μM) neurotoxicity
[5]; SH-SY5Y, cotreatment 0.5, 1, 5 and 10 μM
  neurotoxic effects of AβO: reduced the neurotoxic effects of AβO
[6]
  activated caspase-3 and cleaved PARP-1 levels: significantly decreased
[7]; AβO-treated, APP/PS1 and Adipo−/− mice
  pre- and postsynaptic protein levels: remarkably increased
[7]; WT normal mice
  effects on pre- and postsynaptic markers, Os-pep alone: did not have any detrimental effects
